Laboratory results taken from BindingDB's records for doi:10.1021/jm034056q (Wyeth Research, 2003).

Target: Beta-lactamase TEM (Escherichia coli) (UniProt P62593)
Test: In vitro inhibitory activity against Beta-lactamase TEM-1 of class A enzyme

Beta-lactamase TEM (Escherichia coli), sequence (P62593 whole entry, looked up): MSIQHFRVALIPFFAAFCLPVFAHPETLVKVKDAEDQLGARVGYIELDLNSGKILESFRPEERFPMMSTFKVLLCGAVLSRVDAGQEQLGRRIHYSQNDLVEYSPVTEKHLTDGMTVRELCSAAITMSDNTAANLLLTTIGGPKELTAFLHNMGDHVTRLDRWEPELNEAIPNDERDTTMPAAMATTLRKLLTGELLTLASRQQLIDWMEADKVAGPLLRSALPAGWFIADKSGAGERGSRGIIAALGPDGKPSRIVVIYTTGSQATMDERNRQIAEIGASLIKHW

| Compound | IC50 [nM] |
| --- | --- |
| CC1(C)[C@H](C(=O)O)N2C(=O)[C@@]3(C[C@H]3OC3CCCCC3)[C@H]2S1(=O)=O [2'-(cyclohexyloxy)-3,3-dimethyl-7-oxo-4-thia-1-azaspiro[bicyclo[3.2.0]heptane-6,1'-cyclopropane]-2-carboxylic acid 4,4-dioxide] | > 13000 |
| CC(C)(C)[Si](C)(C)O[C@H]1C[C@@]12C(=O)N1[C@@H](C(=O)O)C(C)(C)S(=O)(=O)[C@@H]12 [(2R,5R,6R)-2'-(tert-Butyl-dimethyl-silanyl-oxy)-3,3-dimethyl-7-oxo-4-thia-1-azaspiro[bicyclo[3.2.0]heptane-6,1'-cyclopropane]-2-carboxylic acid 4,4-dioxide] | 17000 |
| CC1(C)[C@H](C(=O)O)N2C(=O)[C@]3(C[C@@H]3OC3CCCCC3)[C@H]2S1(=O)=O [(2S,5R,6R)-2'-(cyclohexyloxy)-3,3-dimethyl-7-oxo-4-thia-1-azaspiro[bicyclo[3.2.0]heptane-6,1'-cyclopropane]-2-carboxylic acid 4,4-dioxide] | 510 |
| CC(C)(C)[Si](C)(C)O[C@@H]1C[C@@]12C(=O)N1[C@@H](C(=O)O)C(C)(C)S(=O)(=O)[C@@H]12 [(2S,5R,6R)-2'-(tert-Butyl-dimethyl-silanyl-oxy)-3,3-dimethyl-7-oxo-4-thia-1-azaspiro[bicyclo[3.2.0]heptane-6,1'-cyclopropane]-2-carboxylic acid 4,4-dioxide] | 12000 |
| CC(C)(C)[Si](C)(C)O[C@H]1C[C@]12C(=O)N1[C@@H](C(=O)O)C(C)(C)S(=O)(=O)[C@@H]12 [(2S,5R,6R)-2'-(tert-Butyl-dimethyl-silanyl-oxy)-3,3-dimethyl-7-oxo-4-thia-1-azaspiro[bicyclo[3.2.0]heptane-6,1'-cyclopropane]-2-carboxylic acid 4,4-dioxide] | 650 |
| CC1(C)[C@H](C(=O)O)N2C(=O)[C@@]3(C[C@@H]3OC3CCCCC3)[C@H]2S1(=O)=O [(2S,5R,6S)-2'-(cyclohexyloxy)-3,3-dimethyl-7-oxo-4-thia-1-azaspiro[bicyclo[3.2.0]heptane-6,1'-cyclopropane]-2-carboxylic acid 4,4-dioxide] | 1700 |
